Experimental data taken from patent publication US10039839B2, “Compounds that participate in cooperative binding and uses thereof” (Warp Drive Bio, Inc., priority 2015, dated 2018).
Square brackets hold non-standard residues; d marks the D form. Peptide text beside a SMILES is read from it. MeBmt = C/C=C/C[C@@H](C)[C@@H](O)[C@H](NC)C(=O)O; NMeF = CN[C@@H](Cc1ccccc1)C(=O)O; NMeL = CN[C@@H](CC(C)C)C(=O)O; NMeV = CN[C@H](C(=O)O)C(C)C; Abu = CC[C@H](N)C(=O)O; Sar = CNCC(=O)O

Tests used:
HeLa-Cyclophilin A cells = test: Biosensor cell permeability assay, cyclophilin binding compounds; format: cell-based; settings: 72 hrs
Protocol: (§1) This protocol utilizes a modified FKBP or cyclophilin destabilizing mutant to determine the bioactivity of FKBP binding compounds or cyclophilin binding compounds in whole cell assay.
(§2) Plate HeLa-FKBP12 cells (for FKBP binding compounds) or HeLa-Cyclophilin A cells (for cyclophilin binding compounds) and seed overnight at 5 k/well (approximately ˜18 hrs.). Using a multi-channel pipet, take out the old media and add ˜125 ul of new media with compounds. Compounds are diluted using DMEM without Phenol Red, 10% FBS, 1× Sodium Pyruvate, 1× Glutamax. Add 125 ul of media with compound per well.
(§3) Cell binding/permeability is calculated in fold-change (Total RFU of treated samples/total RFU of DMSO treated samples or total RFU above background (Total RFU minus total RFU of DMSO treated samples).

CEP250 [1] = molecular target: T1, CEP250 (Homo sapiens, UniProt Q9BV73); test: SPR binding of CEP250 (analyte) to immobilized FKBP12-F2 binary complex
T1 construct: CEP25011.4 (residues 2134-2231) (in-house); made in house
Protocol: Experiments are performed at 25° C.

CEP250 [2] = molecular target: T1, CEP250; test: ITC binding of FKBP12-compound binary complexes to CEP250; settings: FKBP12 10 μM + ligand 20 μM, 298 K
Protocol: This protocol utilizes Isothermal Titration calorimetry (ITC) to directly measure the heat change associated with binding of FKBP12-F2 and FKBP12-F11 binary complexes to CEP250. Measurement of the heat change allows accurate determination of association constants (Ka), reaction stoichiometry (N), and the change in binding enthalpy (ΔH).
FKBP12 stock solution is diluted to 10 μM in assay buffer (1% DMSO final). Compound is added to FKBP12 to 20 μM (1% DMSO final), and binary complex is filled into the reaction cell of the ITC device after 5-10 min pre-incubation time. […] A control experiment in the absence of compound is also run to determine the heat associated with operational artifacts and the dilution of titrant as it is injected from the syringe into the reaction cell.
Data were fitted with the Origin ITC200 software according to the following procedure: • 1) Read raw data • 2) In “mRawITC”: adjust integration peaks and baseline, integrate all peaks • 3) In “Delta H”—data control: remove bad data (injection #1 and other artifacts), subtract straight line (background subtraction) • 4) In “Delta H”—model fitting: select one set of sites model, perform fitting with Levenberg-Marquardt algorithm until Chi Square is not reduced further, finish with “done” (parameters N, Ka and ΔH are calculated based on fitting)

FKBP12 [3] = molecular target: T2, FKBP12 (Homo sapiens, UniProt P62942)
Protocol: This protocol utilizes Surface Plasmon Resonance (SPR) as a method to determine kinetics (KD, Ka, Kd) for the binding of compound (analyte) to immobilized FKBP12 (ligand).
Experiments are performed at 25° C. Stock solution of 12×HIS tagged FKBP12 is diluted to 100 nM in assay buffer (1% DMSO final). Approximately 500-600 RU of FKBP12 is immobilized on one of two flow cells of an activated NTA chip. The second flow cell is not activated as a reference for non-specific interaction of the analyte to the sensor chip. Various concentrations of compound (1 nM-1 μM range), serially diluted into the same assay buffer (1% DMSO final), are injected onto the FKBP12 surface and reference surface at a flow rate of 10 μl/min. The surface is regenerated between analyte injections with 350 mM EDTA.
The BiaEvaluation software program is used for data fitting. All data is reference subtracted against both the reference flow cell and a buffer injection. For kinetic analyses, data is locally fit to a 1:1 interaction model.
Experiments are performed at 25° C. Stock solution of 12×HIS tagged FKBP12 is diluted to 100 nM in assay buffer (1% DMSO final). Approximately 500-600 RU of FKBP12 is immobilized on one of two flow cells of an activated NTA chip. The second flow cell is not activated as a reference for non-specific interaction of the analyte to the sensor chip.

FKBP12 [4] = molecular target: T2, FKBP12; test: AlphaLISA: inhibition of binding of biotinylated FK506 to FLAG tagged FKBP12; design: made in house
Protocol: This protocol utilizes Perkin Elmers AlphaLISA technology platform to detect FKBP binders by measuring the inhibition of binding of biotinylated FK506 to FLAG tagged FKBP12.
Add 20 uL of 12.5 nM FKBP-FLAG working stock to each well of the 96-well plate. Add 1 uL of test compound (100% DMSO) to each well of the plate using the Janus MTD head and P20 tips (except control wells). Add 1 uL of DMSO to negative control wells and 1 uL of 50 uM FK506 solution to positive control wells. In the dark, add 20 uL of combined Donor/Acceptor beads to each well. Incubate in the dark for 30 minutes at room temperature. In the dark, add 10 uL of 5 nM biotinylated FK506 working stock to each well. Incubate in the dark for 60 minutes at room temperature. Protect plate from light until reading on Biotek Synergy2 Plate Reader; Alphalisa 96-well protocol (680 excitation/615 emission).

HeLa-FKBP12 cells = test: Biosensor cell permeability assay, FKBP binding compounds; format: cell-based; settings: 72 hrs
Protocol: as §1
as §2, with “well. Cells are treated with compounds at concentration: 30, 10, 3.33, 1.11, 0.37, 0.12, 0.04 and 0.013 uM. Time points are taken at 72 hrs and plate read using plate reader with excitation/emission: 575/620.” for “well.”
as §3

CEP250 [5] = molecular target: T3, CEP250 (Homo sapiens, UniProt P62942+Q9BV73); test: Crystal structure analysis of FKBP12-compound-CEP250 ternary complexes; settings: FKBP12-compound-CEP25011.4 crystal structure
T3 construct: CEP25011.4 (residues 2134-2231) (in-house); made in house
Source text: As used herein, the term “buried surface area” refers to the surface area of a protein or a complex that is not exposed to solvent. Buried surface area may be determined by methods known in the art including by calculating inaccessibility to solvent. Inaccessibility to solvent may be calculated computationally with a rolling probe of 1.4 A, using a program such as PDBePISA release version 1.48 (http://www.ebi.ac.uk/pdbe/pisa/).
This protocol describes the crystallization and structure determination method for structures of FKBP12-Compound 2-CEP250 and FKBP12-F11-CEP250 ternary complexes.
A 3:1 molar excess of FKBP12-F2 or FKBP12-F11 binary complex is added to CEP25011.4 and incubated at 4° C. overnight to complete ternary complex formation. Pure ternary complex is isolated by gel filtration purification on a Superdex 200 column in 12.5 mM HEPES pH 7.4, 75 mM NaCl. Purified complex (at 10-20 mg/ml) is subjected to crystallization at 22° C. using sitting drop vapor diffusion. FKBP12-F2-CEP250 crystals grow in a well solution containing 0.2 M sodium malonate, 0.1 M HEPES 7.0, 21% PEG 3350. FKBP12-F11-CEP250 crystals grow in a well solution containing 0.1 M Tris pH 8.5, 0.2 M trimethylamine N-oxide, 22-24% PEG2000 MME. For data collection crystals are transferred to a solution containing mother liquor supplemented with 20-25% glycerol, and then frozen in liquid nitrogen. Diffraction datasets are collected at the Advanced Photon Source (APS) and processed with the HKL program. Molecular replacement solutions are obtained using the program PHASER in the CCP4 suite, using the published structure of FKBP12 (PDB-ID 1FKD) as a search model. Subsequent model building and refinement are performed according to standard protocols with the software packages CCP4 and COOT.

[6] = FKBP12/F2 complex to CEP25011.4 (residues 2134-2231)
[7] = FKBP12/F2 complex to CEP25029.2 (residues 1982-2231)

T2 sequence (P62942 whole entry, species assumed): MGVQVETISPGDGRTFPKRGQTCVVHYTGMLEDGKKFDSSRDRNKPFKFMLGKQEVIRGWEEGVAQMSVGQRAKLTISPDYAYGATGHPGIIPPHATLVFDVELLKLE
T3 sequence (Q9BV73 2134-2231): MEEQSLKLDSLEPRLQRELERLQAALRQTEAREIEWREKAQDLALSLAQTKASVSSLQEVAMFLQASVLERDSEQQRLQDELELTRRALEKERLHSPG
T3 sequence (P62942 whole entry, the tested form may be a part): as the sequence (P62942 whole entry, species assumed) above

Row | Structure (SMILES) | Kd (FKBP12 [3]) [µM] | IC50 (FKBP12 [4]) [µM] | IC50 (HeLa-FKBP12 cells) [µM] | other results
1 | C/C=C/C[C@@H](C)[C@@H](O)[C@H]1C(=O)N[C@@H](CC)C(=O)N(C)CC(=O)N(C)[C@@H](Cc2ccccc2)C(=O)N[C@@H](C(C)C)C(=O)N(C)[C@@H](CC(C)C)C(=O)N[C@@H](C)C(=O)N[C@H](C)C(=O)N(C)[C@@H](CC(C)C)C(=O)N(C)[C@@H](CC(C)C)C(=O)N(C)[C@@H](C(C)C)C(=O)N1C [C36] (cyclo([MeBmt][Abu][Sar][NMeF]V[NMeL]A[dA][NMeL][NMeL][NMeV])) |  |  |  | IC50 (HeLa-Cyclophilin A cells): < 3 µM
2 | CC[C@H](Cc1ccccc1)[C@@H]1/C=C/C/C=C/C[C@@H](C)[C@H](O)[C@@H](C)[C@@H]2CC[C@@H](C)C(=O)C(O)(O2)C(=O)N2CCCC[C@H]2C(=O)O1 [F2, (2S)-1-((4R,7S)-7-((2R,3S,4R,6E,9E,11R,12R)-12-benzyl-3,11-dihydroxy-4-methyltetradeca-6,9-dien-2-yl)-2-hydroxy-4-methyl-3-oxooxepane-2-carbonyl)piperidine-2-carboxylic acid C-11 lactone] |  |  |  | dissociation rate constant (koff) (CEP250 [1]; [6]): 3.09×10^−3 1/S; dissociation rate constant (koff) (CEP250 [1]; [7]): 9.25×10^−5 1/S; Kd (CEP250 [1]; [6]): 0.0054 µM; Kd (CEP250 [1]; [7]): 0.00029 µM; ΔG (CEP250 [2]; CEP25011.4 68 μM): −40.75 kJ*mol−mol−1; ΔH (CEP250 [2]; CEP25011.4 68 μM): −49.37 kJ*mol−mol−1; −T*ΔS (CEP250 [2]; CEP25011.4 68 μM): 8.62 kJ*mol−mol−1; ΔG (CEP250 [2]; CEP25029.4 118 μM): −38.41 kJ*mol−mol−1; ΔH (CEP250 [2]; CEP25029.4 118 μM): −52.21 kJ*mol−mol−1; −T*ΔS (CEP250 [2]; CEP25029.4 118 μM): 13.80 kJ*mol−mol−1
3 | CC1=C\CC(O)CC(/C(C)=C/C(C)=C/C2C=CC(O)C(O)C2)OC(=O)C2CCCCN2C(=O)CC2(O)OC(C(C)C/C=C/CC(O)\C=C\1)C(C)CC2C (stereo not shown) [F6] | 0.141 | 0.06 | < 1 | 
4 | COC1C=C(/C=C/C2OC(=O)C3CCCCN3C(=O)C3(O)OC(CCC(C)C3=O)C(C)C3CC4OC(CC(O)C2C)(O3)C(C)CC4C)CCC1O (stereo not shown) [F7] | 0.12 | 0.026 |  | 
5 | COC1C=C(/C=C/C2OC(=O)C3CCCCN3C(=O)C(=O)C3(O)OC(CCC3C)C(C)C3CC4OC(CC(O)C2C)(O3)C(C)CC4C)CCC1O (stereo not shown) [F8] | 0.066 | 0.0106 |  | 
6 | COC1C(O)CCC(CC(C)C2CCC/C=C/C/C(C)=C/CC3OC(O)(C(=O)C(=O)N4CCCCC4C(=O)O2)C(C)CC3C)C1O (stereo not shown) [F9] | 0.00023 | 0.0003 | < 1 | 
7 | CCC1/C=C(\C)C(O)CCC(C)/C=C/C(O)C(C)C2CCC(C)C(O)(O2)C(=O)C(=O)N2CCCCC2C(=O)OC2C=CC(=CC2O)/C=C(\C)C1 (stereo not shown) [F10] | 0.0172 | 0.0211 | > 1 | 
8 | CC[C@H](Cc1ccccc1)[C@@H]1CCCCCC[C@@H](C)[C@H](O)[C@@H](C)[C@@H]2CC[C@@H](C)C(=O)C(O)(O2)C(=O)N2CCCCC2C(=O)O1 (stereo partly drawn) [F11, (2S)-1-((4R,7S)-7-((2R,3S,4R,11S,12R)-12-benzyl-3,11-dihydroxy-4-methyltetradecan-2-yl)-2-hydroxy-4-methyl-3-oxooxepane-2-carbonyl)piperidine-2-carboxylic acid C-11 lactone] |  |  |  | buried surface area of CEP250 contributed by FKBP12 (CEP250 [5]): 590 Å^2; total buried surface area of CEP250 (CEP250 [5]): 831 Å^2; total buried surface area of the ternary complex (CEP250 [5]): 1648 Å^2; ΔG (CEP250 [2]; CEP25011.4 68 μM): −40.36 kJ*mol−mol−1; ΔH (CEP250 [2]; CEP25011.4 68 μM): −47.78 kJ*mol−mol−1; −T*ΔS (CEP250 [2]; CEP25011.4 68 μM): 7.41 kJ*mol−mol−1; ΔG (CEP250 [2]; CEP25029.4 118 μM): −36.74 kJ*mol−mol−1; ΔH (CEP250 [2]; CEP25029.4 118 μM): −58.48 kJ*mol−mol−1; −T*ΔS (CEP250 [2]; CEP25029.4 118 μM): 21.73 kJ*mol−mol−1; kon (FKBP12 [3]; read-out: Ka): 567000 M⁻¹ s⁻¹
9 | C/C1=C\C2=CC(O)C(C=C2)OC(=O)C2CCCCN2C(=O)C(=O)C2(O)OC(CCC2C)C(C)C(O)/C=C/C(C)CCC(O)/C(C)=C/C(C)C1 (stereo not shown) [F12] | 0.0212 | 0.0363 | > 1 | 
10 | COC1CC(/C=C(C)/C=C(\C)C2CC(O)C/C=C(C)/C=C/C(O)C/C=C/CC(C)C3OC(O)(CC(=O)N4CCCCC4C(=O)O2)C(C)CC3C)C=CC1O (stereo not shown) [F13] | 0.106 | 0.0336 | > 1 | 
11 | COC1CC(/C=C(C)/C=C(\C)C2CC(O)C/C=C(C)/C=C/C(=O)C/C=C/CC(C)C3OC(O)(CC(=O)N4CCCCC4C(=O)O2)C(C)CC3C)C=CC1O (stereo not shown) [F16] | 0.29 | 0.0675 | > 1 | 
12 | C/C1=C\CC2OC(O)(C(=O)C(=O)N3CCCCC3C(=O)OC(C(C)CC3CCC(O)C(O)C3)CCC/C=C/C1)C(C)CC2C (stereo not shown) [F17] | 0.0002 | 0.00026 | < 1 | 
13 | CCC(/C=C(\C)C(O)CCC(C)/C=C/C(O)C(C)C1CCC(C)C(O)(C(=O)C(=O)N2CCCCC2C(=O)O)O1)C/C(C)=C/c1ccc(O)c(O)c1 (stereo not shown) [F18] |  | 0.229 | < 1 | 
14 | COC1CC(CC(C)C2CCC/C=C/C/C(C)=C/CC3OC(O)(C(=O)C(=O)N4CCCCC4C(=O)O2)C(C)CC3C)CCC1O (stereo not shown) [F19] |  | 0.00022 | < 1 | 
15 | CC(=C\C1C=CC(O)C(O)C1)/C=C(\C)C1CC(O)CC1C(C)(O)/C=C/C(O)C/C=C/CC(C)C1OC(O)(CC(=O)N2CCCCC2C(=O)O)C(C)CC1C (stereo not shown) [F23] |  | 4.69 | > 1 | 
